For experiment [1], the system named is HbF in CD34+-derived cells. Description: Flow cytometry of HbF-expressing CD34+-derived cells. Format: cell-based, human. The method, then: For the analysis of HbF expression, HUDEP-2 cells or cells differentiated from human CD34 + progenitor cells were fixed in 0.05% glutaraldehyde for 10 min, then washed two times with PBS containing 2% FBS (PBS/2% FBS) and permeabilized with 0.1% Triton X-100 (prepared in PBS/2% FBS; Life Technologies) for 5 min. After washing with PBS/2% FBS two times, cells were stained with allophycocyanin (APC)-conjugated HbF antibody (1:1, Invitrogen, MHFH05). One million cells were incubated with the HbF–APC antibody for 30 min in the dark at 4 °C. Cells were washed twice with PBS/2% FBS, then suspended in 0.2 ml PBS/2% FBS and analyzed using a FACSCalibur (Becton Dickinson). To assess erythroid differentiation, hematopoietic cells differentiated from human CD34 cells were stained with FITC-conjugated CD45 antibody (1:1, Becton Dickinson, 555482) and APC-conjugated glycophorin A antibody (1:20, Becton Dickinson, 551336). Stained cells were suspended in 0.2 ml PBS/2% FBS containing 1 μg/ml propidium iodide (Sigma) and analyzed by FACSCalibur. The results of flow cytometer were further analyzed by FlowJo software (Becton Dickinson).
A general note: In flow cytometry, cells or beads pass a laser one at a time.

Experiment [2] relates to β- and γ-globin mRNAs in CD34+-derived cells. Description: RT-qPCR of β- and γ-globin in CD34+-derived cells. Format: cell-based, human. The method, then:
(§1) HUDEP-2 cells and HiDEP-1 cells were grown in Stemline II Hematopoietic Stem Cell Expansion Medium (Sigma) supplemented with 50 ng/mL recombinant stem cell factor (SCF; R&D systems), 3 IU/mL recombinant erythropoietin (EPO; Kyowa Kirin), 1 μM dexamethasone (Dex; Sigma), and 1 μg/mL doxycycline (Sigma). A total of 1 × 10^5 human CD34^+ progenitor cells derived from bone marrow or peripheral blood (Lonza) were cultured on 35-mm dishes (BD Falcon) in StemSpan SFEMII medium with 50 ng/mL SCF, 5 IU/mL EPO, and 10 ng /mL interleukin 3 (IL-3; R&D systems). The medium was changed on day 4 to SCF, EPO, and 1 μM Dex, and the cells were transferred to 60-mm dishes (BD Falcon). Seven days after the onset of differentiation, cells were counted and 1 × 10^6 cells were re-plated on 100-mm dishes (BD Falcon) with SCF, EPO, and Dex. The rat myoblast cell line H9c2, HEK293T, and PLAT-E cells were maintained in Dulbecco’s modified Eagle’s medium (Thermo Fisher Scientific) supplemented with 10% heat-inactivated fetal bovine serum (FBS) and penicillin/streptomycin. All cells were cultured at 37 °C under 5% CO2.
(§2) Total cellular RNA was prepared using the Tissue Total RNA Mini Kit (FAVORGEN), and cDNA was synthesized using ReverTra Ace Master Mix (TOYOBO). Expression of target genes was analyzed using THUNDERBIRD SYBR qPCR Mix (TOYOBO) on a CFX Connect Real Time System (Bio-Rad). The qPCR data were acquired on CFX Maestro (Bio-Rad). Primers are listed in Supplementary Table 10. GAPDH was used as a reference. Primers were purchased from INTEGRATED DNA TECHNOLOGIES or FASMAC.

Experiment [3] deals with BGLT3 RNA in CD34+ cells. Kind of experiment: RT-qPCR of BGLT3 in CD34+ cells. Format: cell-based, human. The settings on record: for BGLT3 expression in CD34+ cells treated with hydroxyurea: relative to DMSO = 1, replicate values; for BGLT3 expression: primary human CD34+ cells. The method, then: as §1, §2
A general note: Quantitative PCR measures a nucleic acid by following its amplification.

Experiment [4] concerns BCL11A and ZBTB7A in HUDEP-2 cells. Kind of experiment: RT-qPCR of BCL11A and ZBTB7A in HUDEP-2 cells. The settings on record: for expression of BCL11A and ZBTB7A: HUDEP-2. Format: cell-based, human. The method, then: as §2
Experiment [5] concerns BCL11A- or ZBTB7A-knockout HUDEP-2 cells. Description: RT-qPCR of BGLT3, β- and γ-globin in BCL11A- or ZBTB7A-knockout HUDEP-2 cells. It counts as cell-based, human. The protocol: as §2
Experiment [6] has as its target T1, SUV420H1TV2 (Homo sapiens, UniProt Q4FZB7).
T1 construct: purchased Reaction Biology
Description: Radioisotope-based methyltransferase assay (selectivity). It counts as biochemical.

In experiment [7] the target is T2, SUV39H2 (Homo sapiens, UniProt Q9H5I1).
T2 construct: purchased Reaction Biology
The description is as above. Format: biochemical.

Experiment [8] addresses T3, MLL3 (Homo sapiens, UniProt Q8NEZ4).
T3 construct: purchased Reaction Biology
The description is as above. Format: biochemical.

Experiment [9] deals with PRMT6 (Homo sapiens, UniProt Q96LA8). Described as above.
For experiment [10], the target named is T4, NSD1 (Homo sapiens, UniProt Q96L73).
T4 construct: purchased Reaction Biology
Described as above. It counts as biochemical.

Experiment [11] deals with T5, SMYD1 (Homo sapiens, UniProt Q8NB12).
T5 construct: purchased Reaction Biology
T5 sequence (Q8NB12 1-490): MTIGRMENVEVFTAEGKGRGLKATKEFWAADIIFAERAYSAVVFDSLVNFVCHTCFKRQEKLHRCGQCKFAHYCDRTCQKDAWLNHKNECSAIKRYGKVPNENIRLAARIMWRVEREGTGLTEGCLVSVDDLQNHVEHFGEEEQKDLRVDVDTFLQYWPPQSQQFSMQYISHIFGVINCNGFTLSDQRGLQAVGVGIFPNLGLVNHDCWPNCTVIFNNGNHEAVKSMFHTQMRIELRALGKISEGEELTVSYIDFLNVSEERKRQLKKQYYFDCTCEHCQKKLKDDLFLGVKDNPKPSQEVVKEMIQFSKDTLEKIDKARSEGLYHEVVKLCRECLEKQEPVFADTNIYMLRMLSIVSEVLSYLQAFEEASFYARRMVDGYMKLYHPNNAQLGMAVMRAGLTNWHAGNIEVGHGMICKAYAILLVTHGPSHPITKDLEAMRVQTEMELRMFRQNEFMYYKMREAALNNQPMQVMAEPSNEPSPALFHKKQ
The experiment is described as above. It counts as biochemical.

Setting [12] is: CD34+-derived cells, day 10, 10 μM.
Where [13] appears, read: 50 μM, relative to DMSO = 1, replicate values.
[14] abbreviates: 100 μM, relative to DMSO = 1, replicate values.
Setting [15] is: 200 μM, relative to DMSO = 1, replicate values.
The mark [16] stands for this setting: BCL11AKO, relative to Parental DMSO = 1, replicate values.
Where [17] appears, read: ZBTB7AKO, relative to Parental DMSO = 1, replicate values.
The mark [18] stands for this setting: 0.01 μM, relative to DMSO = 1, replicate values.

Several values for one entry are separate records, joined by “and”; a condition that tells them apart may be missing. Identical values can stand only once. Like-named read-outs stand apart in the source and are kept apart here.

As usually defined, the IC50 is the concentration that gives 50% inhibition.

T2 sequence (Q9H5I1 whole entry): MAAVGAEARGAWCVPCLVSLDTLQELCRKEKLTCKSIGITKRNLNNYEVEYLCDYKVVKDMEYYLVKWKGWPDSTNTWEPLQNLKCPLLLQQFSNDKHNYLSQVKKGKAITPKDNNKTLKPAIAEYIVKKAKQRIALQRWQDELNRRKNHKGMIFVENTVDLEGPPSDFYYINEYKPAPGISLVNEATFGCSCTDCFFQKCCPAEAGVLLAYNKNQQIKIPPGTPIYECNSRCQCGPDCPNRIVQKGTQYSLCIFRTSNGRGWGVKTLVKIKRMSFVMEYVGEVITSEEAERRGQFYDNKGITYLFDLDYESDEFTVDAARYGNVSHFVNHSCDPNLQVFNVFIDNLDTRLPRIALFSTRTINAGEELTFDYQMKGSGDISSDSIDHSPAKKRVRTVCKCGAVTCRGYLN
T4 sequence (Q96L73 whole entry): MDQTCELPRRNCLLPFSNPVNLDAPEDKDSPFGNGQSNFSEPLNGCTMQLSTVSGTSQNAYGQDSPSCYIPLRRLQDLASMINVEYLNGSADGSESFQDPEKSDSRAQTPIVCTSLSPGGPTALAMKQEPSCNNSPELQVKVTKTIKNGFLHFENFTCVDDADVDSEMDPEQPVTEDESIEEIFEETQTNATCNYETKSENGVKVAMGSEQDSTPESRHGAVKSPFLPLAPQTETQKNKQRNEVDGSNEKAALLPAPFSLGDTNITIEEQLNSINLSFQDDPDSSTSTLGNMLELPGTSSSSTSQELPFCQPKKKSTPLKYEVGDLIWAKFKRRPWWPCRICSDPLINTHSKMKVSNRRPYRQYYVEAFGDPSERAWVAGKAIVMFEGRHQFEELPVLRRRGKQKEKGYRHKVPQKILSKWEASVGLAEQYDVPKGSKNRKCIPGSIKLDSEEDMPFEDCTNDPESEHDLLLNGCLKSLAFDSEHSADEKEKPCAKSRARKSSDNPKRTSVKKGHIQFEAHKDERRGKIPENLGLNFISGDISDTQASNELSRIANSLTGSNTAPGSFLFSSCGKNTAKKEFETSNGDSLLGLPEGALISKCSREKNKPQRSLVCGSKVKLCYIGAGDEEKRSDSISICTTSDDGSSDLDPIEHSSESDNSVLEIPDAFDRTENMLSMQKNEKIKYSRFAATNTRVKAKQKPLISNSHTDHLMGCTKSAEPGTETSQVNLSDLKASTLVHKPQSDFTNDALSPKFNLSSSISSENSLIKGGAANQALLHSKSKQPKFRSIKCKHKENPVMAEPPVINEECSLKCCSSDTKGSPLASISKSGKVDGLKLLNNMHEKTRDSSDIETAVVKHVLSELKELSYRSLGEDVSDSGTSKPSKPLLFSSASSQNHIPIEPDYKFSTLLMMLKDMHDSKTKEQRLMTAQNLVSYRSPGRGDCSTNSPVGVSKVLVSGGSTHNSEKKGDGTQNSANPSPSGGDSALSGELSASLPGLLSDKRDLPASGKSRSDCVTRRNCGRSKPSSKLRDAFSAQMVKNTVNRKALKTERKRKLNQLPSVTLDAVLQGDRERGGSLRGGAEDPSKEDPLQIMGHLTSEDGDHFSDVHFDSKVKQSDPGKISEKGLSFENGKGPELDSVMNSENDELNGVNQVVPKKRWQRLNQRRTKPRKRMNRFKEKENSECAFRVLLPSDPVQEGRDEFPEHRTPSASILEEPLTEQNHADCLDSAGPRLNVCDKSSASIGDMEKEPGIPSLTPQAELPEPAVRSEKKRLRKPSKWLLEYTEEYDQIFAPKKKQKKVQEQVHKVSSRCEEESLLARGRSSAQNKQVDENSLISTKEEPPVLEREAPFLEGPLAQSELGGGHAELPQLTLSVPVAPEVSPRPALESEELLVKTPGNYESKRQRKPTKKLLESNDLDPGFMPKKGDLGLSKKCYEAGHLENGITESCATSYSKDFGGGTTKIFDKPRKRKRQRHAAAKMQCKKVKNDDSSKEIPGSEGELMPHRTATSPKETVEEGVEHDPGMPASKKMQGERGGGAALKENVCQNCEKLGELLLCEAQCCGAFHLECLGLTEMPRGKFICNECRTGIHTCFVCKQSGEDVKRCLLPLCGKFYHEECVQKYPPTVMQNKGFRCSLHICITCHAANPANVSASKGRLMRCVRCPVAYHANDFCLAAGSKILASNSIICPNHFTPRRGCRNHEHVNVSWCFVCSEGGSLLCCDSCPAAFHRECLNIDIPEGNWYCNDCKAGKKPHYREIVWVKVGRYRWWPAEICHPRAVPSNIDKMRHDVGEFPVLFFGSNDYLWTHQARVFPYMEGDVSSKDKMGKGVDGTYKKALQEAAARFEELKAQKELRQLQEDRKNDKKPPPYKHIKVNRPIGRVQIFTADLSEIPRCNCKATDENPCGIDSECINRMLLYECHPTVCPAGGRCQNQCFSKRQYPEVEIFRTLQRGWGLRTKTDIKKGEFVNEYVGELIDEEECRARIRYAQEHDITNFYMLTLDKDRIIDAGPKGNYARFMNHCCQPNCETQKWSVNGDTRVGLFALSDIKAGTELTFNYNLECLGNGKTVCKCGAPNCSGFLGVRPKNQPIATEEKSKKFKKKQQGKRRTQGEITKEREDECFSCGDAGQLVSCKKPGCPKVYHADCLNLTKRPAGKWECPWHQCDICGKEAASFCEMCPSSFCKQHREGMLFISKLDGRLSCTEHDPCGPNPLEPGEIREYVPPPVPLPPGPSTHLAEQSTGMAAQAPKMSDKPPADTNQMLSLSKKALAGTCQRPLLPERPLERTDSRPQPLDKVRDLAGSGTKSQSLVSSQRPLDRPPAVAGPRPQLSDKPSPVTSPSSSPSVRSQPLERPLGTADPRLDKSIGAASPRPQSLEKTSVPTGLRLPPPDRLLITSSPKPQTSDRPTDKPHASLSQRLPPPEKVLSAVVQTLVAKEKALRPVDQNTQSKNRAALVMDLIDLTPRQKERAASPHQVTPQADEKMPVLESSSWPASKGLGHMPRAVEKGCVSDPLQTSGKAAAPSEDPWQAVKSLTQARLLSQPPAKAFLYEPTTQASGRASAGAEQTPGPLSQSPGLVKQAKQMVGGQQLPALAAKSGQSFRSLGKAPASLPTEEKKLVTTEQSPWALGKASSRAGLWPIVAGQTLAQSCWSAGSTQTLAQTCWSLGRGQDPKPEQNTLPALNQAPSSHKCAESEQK
T1 sequence (Q4FZB7 1-393 isoform Q4FZB7-2): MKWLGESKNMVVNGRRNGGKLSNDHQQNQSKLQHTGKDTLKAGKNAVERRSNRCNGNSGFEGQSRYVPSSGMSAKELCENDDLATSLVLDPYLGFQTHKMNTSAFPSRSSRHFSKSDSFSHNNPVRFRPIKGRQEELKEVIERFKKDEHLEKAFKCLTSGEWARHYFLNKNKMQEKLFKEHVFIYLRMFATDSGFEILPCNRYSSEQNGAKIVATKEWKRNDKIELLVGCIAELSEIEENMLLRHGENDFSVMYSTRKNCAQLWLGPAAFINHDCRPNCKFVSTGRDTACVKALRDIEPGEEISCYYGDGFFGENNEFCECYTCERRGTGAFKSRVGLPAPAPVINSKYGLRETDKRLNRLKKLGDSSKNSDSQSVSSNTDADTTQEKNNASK
PRMT6, sequence (Q96LA8 whole entry): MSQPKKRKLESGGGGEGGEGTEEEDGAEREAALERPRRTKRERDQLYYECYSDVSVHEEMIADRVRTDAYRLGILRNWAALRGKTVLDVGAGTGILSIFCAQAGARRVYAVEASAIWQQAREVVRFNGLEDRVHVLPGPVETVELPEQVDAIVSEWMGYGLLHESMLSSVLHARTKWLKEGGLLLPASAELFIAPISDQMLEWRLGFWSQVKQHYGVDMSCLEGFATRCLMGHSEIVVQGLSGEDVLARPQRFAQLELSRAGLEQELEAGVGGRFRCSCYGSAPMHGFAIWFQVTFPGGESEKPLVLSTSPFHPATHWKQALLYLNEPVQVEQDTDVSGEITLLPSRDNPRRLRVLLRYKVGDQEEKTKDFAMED

Take `NC(=O)NO` [Hydroxyurea, hydroxyurea]: in experiment [1], the “HbF induction compared with RK-701” value is reported as “less effective in inducing HbF than RK-701”. In addition, the “Percentage of HbF-expressing cells” value in experiment [1] (day 11, 10 μM, listed as HU) was 32.8% and 45.2% and 37.4%; in experiment [1] (day 11, 50 μM, listed as HU), 63% and 65.2% and 61.5%. Also, the “Relative expression of β-globin mRNA” value in experiment [2] (setting [12]) was 1.124 and 0.7862 and 0.5724. Besides, the “Relative expression of γ-globin mRNA” value in [2] (setting [12]) is 2.644 and 2.524 and 1.672. Also, the “BGLT3 expression in CD34+ cells treated with hydroxyurea” value was 1.048 and 1.203 and 1.026 in [3] (DAY7, 10 μM); 1.743 and 1.82 and 2.054 in experiment [3] (DAY7, 50 μM); 1.52 and 1.518 and 1.0769 in experiment [3] (DAY9, 10 μM); 2.568 and 2.893 and 2.233 in [3] (DAY9, 50 μM). Also, the BGLT3 expression result is “promoted BGLT3 expression” in experiment [3]; 4.086 and 4.522 and 3.744 in [5] (Left panel, BCL11AKO HUDEP-2 cells treated with hydroxyurea, Parental DMSO = 1, 3 replicates); 7.409 and 8.146 and 6.041 in experiment [5] (Left panel, ZBTB7AKO HUDEP-2 cells treated with hydroxyurea, Parental DMSO = 1, 3 replicates); 0.9046 and 1.002 and 0.9124 in experiment [5] (Right panel, BCL11AKO HUDEP-2 cells treated with hydroxyurea, DMSO of the same cells = 1, 3 replicates); 1.218 and 1.432 and 1.28 in experiment [5] (Right panel, ZBTB7AKO HUDEP-2 cells treated with hydroxyurea, DMSO of the same cells = 1, 3 replicates). Besides, the “BCL11A expression in HUDEP-2 cells treated with hydroxyurea” value in experiment [4] (setting [13]) is 1.149 and 0.8339 and 1.127; in experiment [4] (setting [14]), 1.406 and 0.8316 and 1.105; in experiment [4] (setting [15]), 0.9537 and 0.8461 and 1.024. Besides, the “ZBTB7A expression in HUDEP-2 cells treated with hydroxyurea” value in experiment [4] (setting [13]) is 1.5773 and 1.182 and 1.627; in experiment [4] (setting [14]), 3.378 and 1.925 and 2.126; in [4] (setting [15]), 5.802 and 2.404 and 2.049. In experiment [4], the “expression of BCL11A and ZBTB7A” value was “did not significantly affect”. For the same compound, in experiment [5] (setting [16]), the “β-globin in hydroxyurea-treated BCL11A-knockout HUDEP-2 cells” value is 0.8331 and 0.6286 and 0.8387. In experiment [5] (setting [16]), the “γ-globin in hydroxyurea-treated BCL11A-knockout HUDEP-2 cells” value is 30.3873 and 19.1624 and 29.0192. Besides, the “β-globin in hydroxyurea-treated ZBTB7A-knockout HUDEP-2 cells” value in experiment [5] (setting [17]) is 0.1643 and 0.09952 and 0.1527. Moreover, the “γ-globin in hydroxyurea-treated ZBTB7A-knockout HUDEP-2 cells” value in experiment [5] (setting [17]) was 16.1366 and 9.002 and 13.1897.
For the compound `Cc1c(C(=O)NC(CCC2CC2)C(=O)Nc2ccc(C#N)cc2)[nH]c2c1C(=O)CC(C)(C)C2` (stereo not shown) [RK-701], the IC50 is over 100 µM in [6] (SUV420H1TV2, 1 μM SAM); over 100 µM in [6] (SUV420H1TV2, RK-701 in duplicate); over 100 µM in experiment [7] (SUV39H2, 1 μM SAM); over 100 µM in [7] (SUV39H2, RK-701 in duplicate); over 100 µM in experiment [8] (MLL3, 1 μM SAM); over 100 µM in experiment [8] (MLL3, RK-701 in duplicate). In addition, the IC50 in experiment [9] was over 100 µM; in [10] (NSD1, 1 μM SAM), over 100 µM; in [10] (NSD1, RK-701 in duplicate), over 100 µM; in [11] (SMYD1, 1 μM SAM), 52.7 µM; in experiment [11] (SMYD1, RK-701 in duplicate) it was 45 µM and 60.5 µM. The “Percentage of HbF-expressing cells” value in experiment [1] (day 11, 0.01 μM) is 22.7% and 27% and 19%; in [1] (day 11, 0.03 μM), 41.2% and 51.3% and 42.4%; in experiment [1] (day 11, 0.1 μM) it was 71.3% and 76.8% and 67.7%; in experiment [1] (day 11, 0.3 μM) it was 83.5% and 83.7% and 81.1%; in [1] (day 11, 1 μM), 84.2% and 87.4% and 83.5%; in experiment [1] (day 11, 3 μM), 84.8% (2×) and 85.2%. The “γ-globin mRNA expression” value in [2] (primary human CD34+ hematopoietic cells) was “significantly increased”. Further, the BGLT3 expression entry in experiment [3] is “induced BGLT3 expression”; in experiment [5] (BCL11A KO HUDEP-2 cells treated with RK-701, parental DMSO = 1, replicates 1a-3b), 6.941 and 5.75 and 6.485 and 4.87 and 5.182 and 3.691; in [5] (BCL11A knockout HUDEP-2), “could no longer increase BGLT3 expression”; in experiment [5] (ZBTB7A KO HUDEP-2 cells treated with RK-701, parental DMSO = 1, replicates 1a-3b), 4.7282 and 5.8001 and 5.631 and 4.239 and 5.932 and 4.543; in experiment [5] (ZBTB7A knockout HUDEP-2) it was “prevented RK-701 from increasing BGLT3 expression”. For the same compound, in experiment [4] (setting [18]), the “BCL11A expression in HUDEP-2 cells” value is 0.7709 and 1.287 and 1.333. The “ZBTB7A expression in HUDEP-2 cells” value in experiment [4] (setting [18]) is 0.7642 and 1.54 and 1.588. Besides, the “expression of BCL11A and ZBTB7A” value in experiment [4] was “did not significantly affect”.
Consider `Nc1ncnc2c1ncn2[C@@H]1O[C@H](CSCC[C@H](N)C(=O)O)[C@@H](O)[C@H]1O` [SAH, S-(5'-Adenosyl)-L-homocysteine, reference compound], for which the IC50 in [6] was found to be 126 µM; in experiment [7] (SUV39H2, 1 μM SAM), 20.2 µM; in experiment [7] (SUV39H2, RK-701 in duplicate), 20.2 µM; in experiment [8] (MLL3, 1 μM SAM), 49.7 µM; in experiment [8] (MLL3, RK-701 in duplicate), 49.7 µM; in [9] (IC50, PRMT6, 1 μM SAM), 0.41 µM. For the same compound, the concentration for half-maximal inhibition (IC50) stood at 56.6 µM in [10] (NSD1, 1 μM SAM); 56.6 µM in experiment [10] (NSD1, RK-701 in duplicate); 47.4 µM in [11] (SMYD1, 1 μM SAM); 47.4 µM in experiment [11] (SMYD1, RK-701 in duplicate).

Source of the values: publication PMC9837035 (Nature Communications, 2023).
